{
  "source": "patent US20190255146A1",
  "about": "“POLYPEPTIDES FOR IMPROVED RESPONSE TO ANTI-CANCER THERAPY” (MUSC FOUNDATION FOR RESEARCH DEVELOPMENT, priority 2016, published 2019)",
  "molecules": {"B1": {"name": "dimerization domain deleted mutant of E2F5, GFP-tagged (E2F5^Δ84-177-GFP) (other)", "chain": "MAAAEPASSGQQAPAGQGQGQRPPPQPPQAQAPQPPPPPQLGGAGGGSSRHEKSLGLLTTKFVSLLQEAKDGVLDLKAAADTLICNCFNGDTLLAIQAPSGTQLEVPIPEMGQNGQKKYQINLKSHSGPIHVLLINKESSSSKPVVFPVPPPDDLTQPSSQSLTPVTPQKSSMATQNLPEQHVSERSQALQQTSATDISSAGSISGDIIDELMSSDVFPLLRLSPTPADDYNFNLDDNEGVCDLFDVQILNY", "notes": "Ectopically expressed in cells; not shown: GFP tag"}},
  "key": {"Drp1 [1]": {"target": "T1, Drp1 (Homo sapiens, UniProt O00429)", "T1 construct": "Western blotting using whole cell (UM-SCC-22A) lysates versus mitochondria-enriched fractions; endogenous in cells; host or cells: UM-SCC-22A", "experiment": "Drp1 recruitment to mitochondria in HPV(−) UM-SCC-22A cells (Western blotting of mitochondria-enriched fractions)", "format": "cell-based", "settings": "5 uM peptide, 20 uM C18-pyr-cer, 1.5 hours", "description": "Images were quantified using FIJI.\n(§1) Immunoblotting. Cells were lysed in RIPA buffer plus protease inhibitor cocktail on ice for 15 minutes then centrifuged. 30ug of protein from the supernatant were run on Criterion™ TGX™ Precast Gels (Bio-Rad).\nCell fractionation. Cells were treated with 40 uM cisplatin or vehicle for eight hours, 20 uM C18-pyr-cer or vehicle and/or 5 uM scr-pept or E2F5-pept for 1.5 hours. Mitochondria isolation kit (ThermoFisher Scientific) was used as described by the manufacturer."}, "[2]": {"tested_on": "UM-SCC-22A-derived xenograft tumors", "experiment": "HPV(−) UM-SCC-22A-derived xenograft tumor growth in SCID mice", "format": "in vivo", "description": "(§2) To determine whether HPV(+) compared to HPV(−) HNSCC cells are more sensitive to stress-mediated growth inhibition in response to chemotherapeutic drugs, it was first established HPV(+) UM-SCC-47- and HPV(−) UM-SCC-22A-derived xenograft tumors in SCID mice. After the xenograft-derived tumors were ˜75-100 mm^3, the mice were treated with cisplatin (3.5 mg/kg) for two weeks, which is below its maximum tolerated doses (van Moorsel et al, 1999). Then, tumor volumes were measured at days 0 and 14 of treatment. […] After tumor growth measurements in the mice were taken, the tumors were surgically removed and the effects of cisplatin on CerS1-6 mRNA were measured by qRT-PCR.\nEight arginine residues (R8) were included on the N-terminus to enhance cell penetration of the E2F5 peptide (Rancher and Ryu, 2015).\nIn vivo studies. Severe combined immunodeficient (SCID) mice were purchased from Jackson Laboratories. Age- and sex-matched mice were used. All animal protocols were approved by the Institutional Animal Care and Use Committee at the Medical University of South Carolina. UM-SCC22A or UM-SCC47 cells (75,000) were implanted into the flanks of SCID mice (n=5-8 mice). When the tumors were palpable, the mice were treated every three days with 3.5 mg/kg cisplatin, 20 mg/kg C18-pyr-cer, or corresponding amount of vehicle control and/or 3.76 μg E2F5-peptide or scrambled control peptide. Tumor volume was measured using calipers. At the end of the 14-day treatment, the mice were euthanized and tumor tissues were collected (Sentelle et al, 2007; Saddoughi et al, 2013)."}, "LC3B": {"tested_on": "LC3B", "experiment": "LC3B lipidation by Western blotting in UM-SCC-47 cell extracts", "format": "cell-based", "settings": "UM-SCC-47 cells, versus vehicle", "description": "FIGS. 12A-C. Knockdown of autophagy inducer LC3 inhibits cisplatin-mediated cell death in HPV(+) HNSCC cells. (A) Induction of autophagy in response to cisplatin was assessed by detection of LC3B lipidation using Western blotting in HPV(+) UM-SCC-47 cell extracts with anti-LC3B antibody compared to vehicle (veh) treated controls. Actin was used as a loading control. […] Samples shown are from the same representative blot but not in contiguous lanes. (B-C) Effects of siRNA-mediated knockdown of LC3B on cisplatin-mediated cell death were measured and IC50 concentrations were calculated by MTT assays compared to Scr-siRNA-transfected controls. […] Si-RNA-mediated knockdown of LC3B was confirmed using Western blotting with anti-LC3B antibody compared to Scr-siRNA-transfected controls (C). Actin was used as a loading control.\nas §1"}, "CerS1": {"tested_on": "CerS1", "experiment": "CerS1 localization, Western blotting of cytoplasm versus mitochondria enriched fractions of UM-SCC-47 cells", "format": "cell-based", "settings": "cisplatin 1 and 4 h versus 0 h", "description": "FIGS. 2A-G. HPV-E6 enhances chemotherapy-mediated cellular stress and CerS1/ceramide-mediated lethal mitophagy. (A-B) Effects of siRNA-mediated knockdown of HPV-E6/E7 on HPV(+) UM-SCC-47 cell death was assessed by MTT compared to Scr-siRNA-transfected and/or vehicle-treated controls. Successful knockdown of HPV-E6/E7 proteins were confirmed by Western blot analysis (B). […] (C) Effects of ectopic expression of HPV-E6 versus E7 on HPV(−) UM-SCC-22A cell death were measured by MTT. HPV-E6/E7 protein abundance was measured by Western blotting. […] (D) Effects of shRNA-mediated knockdown of CerS1 on mitophagy in response to cisplatin were measured by live cell imaging confocal micrographs of UM-SCC-47 cells stained with LTG and MTR. Scr-shRNA-transfected and/or vehicle-treated cells were used as controls. […] Images were quantified using ImageJ. (E) Cytoplasmic versus mitochondrial localization of CerS1 in the presence/absence of cisplatin at 0, 1, and 4 h was measured by Western blotting using anti-CerS1 antibody in cytoplasm (cyto)—versus mitochondria (mito)-enriched cellular fractions of UM-SCC-47 cells. Actin and Tom 20 were used as controls for cytoplasm- and mitochondria-enriched fractions, respectively. […] (F-G) Effects of shRNA-mediated knockdown of CerS6, confirmed by Western blotting (F), on UM-SCC-47 cell death in response to cisplatin were measured by trypan blue exclusion assay (G). […]"}, "UM-SCC-22A cells": {"tested_on": "UM-SCC-22A cells", "experiment": "Growth inhibition in culture, IC50 determination by MTT assay", "format": "cell-based", "settings": "UM-SCC-22A (HPV−) cells, 48 h; read-out: IC50 (concentration that inhibited growth by 50%)", "description": "(§3) IC50 determination by MTT assay. Cells were plated in 96-well plates and allowed to adhere for 20 h, then treated with the indicated concentrations of drug. After 48 h treatment, the MTT assay (ATCC) was performed as described previously (Sentelle et al, 2012)."}, "UM-SCC-47 cells": {"tested_on": "UM-SCC-47 cells", "experiment": "Growth inhibition in culture, IC50 determination by MTT assay", "format": "cell-based", "description": "as §3"}, "[3]": {"tested_on": "UM-SCC-47-derived xenograft tumors", "experiment": "HPV(+) UM-SCC-47-derived xenograft tumor growth in SCID mice", "format": "in vivo", "settings": "HPV(+) UM-SCC-47 xenografts, cisplatin 3.5 mg/kg for two weeks, tumor volumes days 0 and 14", "description": "as §2\n(§4) In vivo studies. […] Age- and sex-matched mice were used. […] Tumor volume was measured using calipers."}, "CerS1-6 mRNA": {"tested_on": "CerS1-6 mRNA", "experiment": "CerS1-6 mRNA by qRT-PCR in HPV(+) UM-SCC-47 xenograft-derived tumors", "format": "in vivo, mice", "settings": "day 14 versus day 0", "description": "as §2\nQuantitative RT-PCR. RNA was extracted from cell pellets using RNeasy kit (Qiagen) per the manufacturer's instructions. cDNA was generated using equal amounts of RNA from each sample and iScript cDNA synthesis kit (Bio-Rad) per manufacturer's instructions. Reactions were carried out using SsoFast probes mix (Bio-Rad) and TaqMan primer probes (ThermoFisher Scientific) in a StepOne Plus qPCR cycler as described by the manufacturer.\nas §4"}, "Drp1 [4]": {"tested_on": "Drp1", "experiment": "Drp1 oligomerization by Western blotting without reducing agents", "format": "cell-based", "settings": "HPV(+) UM-SCC47 cells", "description": "FIGS. 7A-F. E2F5/Drp1 complex enhances HPV-E7/ceramide-dependent lethal mitophagy. (A) UM-SCC47 cells were treated with cisplatin or C18-pyr-cer and Western blotting was performed with cell lysates in the absence of reducing agents in the lysing buffer to detect monomeric and dimeric Drp1 protein abundance compared to vehicle-treated controls. Actin was used as a loading control. (B-C) Cell death was assessed by trypan blue exclusion assay in UM-SCC47 cells expressing dominant-negative Drp1 mutant (K38A-DRP1) and treated with C18-pyr-cer (B) or cisplatin (C) compared to vector-transfected controls. […] (D-E) Association between E2F5 and Drp1 in response to ceramide stress (C18-pyr-cer) was measured in UM-SCC-47 cells using PLA (D) or immunoprecipitation followed by Western blotting (E) with anti-Drp1 or anti-E2F5 antibodies. IgG was used as a control. […] PLA signals were quantified as described by the manufacturer using the PLA quantification software. […] Effects of siRNA-mediated HPV-E6/E7 knockdown on pRB, HPV-E7 and p53 protein abundance were also confirmed by Western blotting compared to Scr-siRNA-transfected controls in the absence/presence of C18-pyr-cer (right panel). Total RB was used a loading control (Rb band, upper panel).\nImmunoblotting. Cells were lysed in RIPA buffer plus protease inhibitor cocktail on ice for 15 minutes then centrifuged. […]"}, "[5]": {"target": "T2, retinoblastoma protein (RB) (UniProt P06400 2-928, limits assumed)", "T2 construct": "whole, on cells; Endogenous intracellular protein, detected with anti-RB antibody; also called pRB", "T2 sequence (looked up)": "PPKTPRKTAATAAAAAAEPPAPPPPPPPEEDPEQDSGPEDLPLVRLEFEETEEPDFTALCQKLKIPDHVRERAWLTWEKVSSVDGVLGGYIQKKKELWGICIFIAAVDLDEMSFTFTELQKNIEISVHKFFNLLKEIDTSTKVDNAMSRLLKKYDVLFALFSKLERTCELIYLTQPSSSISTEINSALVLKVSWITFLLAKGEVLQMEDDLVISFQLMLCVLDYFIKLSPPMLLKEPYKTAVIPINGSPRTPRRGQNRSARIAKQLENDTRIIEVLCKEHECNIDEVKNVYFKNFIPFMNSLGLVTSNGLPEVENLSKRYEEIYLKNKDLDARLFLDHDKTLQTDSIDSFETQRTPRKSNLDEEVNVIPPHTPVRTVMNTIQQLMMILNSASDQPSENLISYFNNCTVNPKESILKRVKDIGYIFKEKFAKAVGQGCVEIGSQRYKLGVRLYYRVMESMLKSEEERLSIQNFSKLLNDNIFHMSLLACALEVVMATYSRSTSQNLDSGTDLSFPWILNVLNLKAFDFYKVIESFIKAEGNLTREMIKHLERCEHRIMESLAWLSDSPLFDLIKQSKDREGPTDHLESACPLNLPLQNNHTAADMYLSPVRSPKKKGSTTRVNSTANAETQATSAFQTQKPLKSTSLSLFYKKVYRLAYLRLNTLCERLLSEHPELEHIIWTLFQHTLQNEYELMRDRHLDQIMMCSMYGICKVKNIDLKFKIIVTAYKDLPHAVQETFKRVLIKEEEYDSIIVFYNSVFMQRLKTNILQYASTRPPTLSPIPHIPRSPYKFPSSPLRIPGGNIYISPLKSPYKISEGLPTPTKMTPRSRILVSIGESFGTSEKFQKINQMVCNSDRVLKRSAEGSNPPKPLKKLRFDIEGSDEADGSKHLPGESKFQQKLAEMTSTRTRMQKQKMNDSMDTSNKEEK", "experiment": "PLA with anti-GFP and anti-RB antibodies, UM-SCC-22A cells", "excerpt": "PLA images were quantified using the PLA software as described by the manufacturer. […] Vector-GFP was used as a control (right panel, C)."}},
  "data": [
    {"molecule": "Biotin-RRRRRRRR-LILFVIKLHQDVNDMRNSNQDQTQSEDRESKWY [scr-pept]", "values": [
      {"measurement": "ceramide-induced Drp1 recruitment to mitochondria", "setting": "Drp1 [1]", "result": "not"},
      {"measurement": "tumor growth", "setting": "[2]; UM-SCC-22A xenografts, 3.76 μg peptide, absence/presence of cisplatin 3.5 mg/kg every 3 days for 2 weeks", "result": "no effect"}
    ]},
    {"molecule": "N.N.[Cl][Pt][Cl]", "note": "[cisplatin]", "values": [
      {"measurement": "LC3B lipidation (marker of autophagy induction)", "setting": "LC3B", "result": "Increased LC3B lipidation"},
      {"measurement": "accumulation of CerS1 in mitochondria", "setting": "CerS1", "result": "increased accumulation of CerS1 in mitochondria"},
      {"measurement": "IC50", "setting": "UM-SCC-22A cells", "result": 28, "unit": "µM"},
      {"measurement": "IC50", "setting": "UM-SCC-47 cells; UM-SCC-47 (HPV+) cells, 48 h, read-out: IC50 (concentration that inhibited growth by 50%)", "result": 8, "unit": "µM"},
      {"measurement": "reduction of cisplatin-mediated growth inhibition by knockdown of CerS1", "setting": "UM-SCC-47 cells; UM-SCC-47 cells, CerS1 shRNA versus Scr-shRNA, MTT", "result": "~4", "unit": "fold"},
      {"measurement": "resistance to cisplatin-mediated growth inhibition upon knockdown of E6 and E7", "setting": "UM-SCC-47 cells; UM-SCC-47 cells, HPV-E6/E7 siRNA versus Scr-siRNA, MTT", "result": "~8", "unit": "fold"},
      {"measurement": "sensitivity for drug-induced growth inhibition/cell death, UM-SCC-47 compared to UM-SCC-22A cells", "setting": "UM-SCC-47 cells; cells in culture", "result": "~3", "unit": "fold"},
      {"measurement": "tumor suppression of xenografts", "setting": "[2]; HPV(−) UM-SCC-22A xenografts, cisplatin 3.5 mg/kg for two weeks", "result": "no detectable tumor suppression"},
      {"measurement": "inhibition of growth of xenografts in response to cisplatin", "setting": "[3]", "result": "~75", "unit": "%"},
      {"measurement": "CerS1 and CerS6 mRNA in tumors", "setting": "CerS1-6 mRNA", "result": "induced CerS1 and CerS6 mRNA"},
      {"measurement": "Drp1 oligomerization and/or activation", "setting": "Drp1 [4]", "result": "Drp1 oligomerization and/or activation was observed"}
    ]},
    {"molecule": "B1", "values": [
      {"measurement": "binding result", "setting": "[5]", "result": "binds"}
    ]}
  ]
}
